Drawing on patent publication US20070185161A1, “Bicyclic substituted indole-derivative steroid hormone nuclear receptor modulators” (priority 2004, published 2007), this text covers Ki for 14 compounds.

Assay [1] concerns the target T1, glucocorticoid receptor (A549 human lung epithelial cell extract) (Homo sapiens, UniProt P04150).
T1 construct: host or cells: A549 human lung epithelial cells
T1 sequence (P04150 1-777): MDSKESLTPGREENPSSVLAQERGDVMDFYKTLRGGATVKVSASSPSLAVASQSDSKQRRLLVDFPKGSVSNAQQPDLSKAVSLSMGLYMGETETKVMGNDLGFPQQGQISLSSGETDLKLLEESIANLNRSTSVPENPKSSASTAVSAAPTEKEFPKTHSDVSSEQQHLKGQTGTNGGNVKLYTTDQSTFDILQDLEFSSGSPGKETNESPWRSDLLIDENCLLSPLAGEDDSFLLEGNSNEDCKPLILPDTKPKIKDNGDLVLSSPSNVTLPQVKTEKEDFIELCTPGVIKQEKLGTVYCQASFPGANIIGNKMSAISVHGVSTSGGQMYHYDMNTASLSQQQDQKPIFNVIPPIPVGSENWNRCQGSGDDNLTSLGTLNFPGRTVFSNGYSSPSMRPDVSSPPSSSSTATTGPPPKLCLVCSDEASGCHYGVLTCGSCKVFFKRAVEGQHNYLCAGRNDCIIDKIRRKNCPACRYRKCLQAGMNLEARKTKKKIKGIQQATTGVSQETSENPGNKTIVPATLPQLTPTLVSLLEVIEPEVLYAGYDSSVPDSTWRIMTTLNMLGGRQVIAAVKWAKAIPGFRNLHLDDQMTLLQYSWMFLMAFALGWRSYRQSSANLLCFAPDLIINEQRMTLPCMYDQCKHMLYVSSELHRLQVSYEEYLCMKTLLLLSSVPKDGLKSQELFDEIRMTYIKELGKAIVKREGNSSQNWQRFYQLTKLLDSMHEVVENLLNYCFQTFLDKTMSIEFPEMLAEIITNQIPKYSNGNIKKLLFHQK
Description: Glucocorticoid Receptor Binding Assay (Method 1). The settings on record: [3H]-dexamethasone, racemic mixture unless otherwise indicated, read-out: GR Ki (nM) Method 1. As for the experimental part:
A549 human lung epithelial cells (ATCC) are grown at a scale where gram quantity cell pellets are obtained. Harvested cell pellets are washed twice in cold phosphate buffered saline, centrifuged, and resuspended in cold assay binding buffer. The assay binding buffer consists of 10% glycerol, 50 mM Tris-HCl (pH7.2), 75 mM sodium chloride, 1.5 mM magnesium chloride, 1.5 mM EDTA, and 10 mM sodium molybdate. Cell suspensions were lysed via sonication, centrifuged, and the “extract” supernatant is snap frozen and stored at −80 C until needed.
GR binding assays are performed in a final volume of 140 ul containing 50-200 ug of A549 cell extract and 1.86 nM [^3H]-dexamethasone (Amersham) plus varying concentrations of test compound or vehicle. Briefly, assays are prepared at RT in 96-well Fisher 3356 plates, each well containing 100 ul of A549 cell extract, 20 ul of [^3H]-dexamethasone, and 20 ul of test compound/vehicle. Incubations are carried out at 4 degrees Celsius for 16 hours. After incubation, 70 ul of 3× dextran-coated charcoal solution is added to each reaction, mixed, and incubated for 8 minutes at RT. 3×-dextran-coated charcoal solution consists of 250 ml assay binding buffer, 3.75 g Norit A charcoal (Sigma), and 1.25 g dextran T-70 (Amersham). Charcoal/unbound radioligand complexes are removed by centrifugation of the plate and 140 ul of supernatant from each well is transferred to another 96 well Optiplate (Packard Instruments). 200 ul of Microscint-20 scinillant (Packard Instruments) is added to each well and amount of receptor bound radioligand is determined using Packard Instruments TopCount instrument.
IC50 values, defined as the concentration of test compound required to decrease [^3H]-dexamethasone binding by 50%, are then determined. Ki values for each respective test compound can then be calculated by application of the Cheng-Prusoff equation as described in Cheng et al., Relationship Between The Inhibition Constant (Ki) and The Concentration of Inhibitor Which Causes 50% Inhibition (IC50) of an Enzymatic Reaction, Biochem. Pharmacol., 22: 3099-31088; (1973).

Assay [2] addresses T2, human GR (glucocorticoid receptor) (Homo sapiens, UniProt P04150).
T2 construct: expressed in transfected cells; host or cells: 293 cells
T2 sequence (P04150 1-777): T1 sequence (P04150 1-777)
Kind of assay: Alternative Binding Assay Protocol (Method 2), GR. The conditions noted are these: 3H-dexamethasone, 293-GR lysate, racemic mixture unless otherwise indicated. As for the experimental part: Cell lysates from 293 cells overexpressing human GR (glucocorticoid receptor), AR (androgen receptor), MR (mineralocorticoid receptor) or PR (progesterone receptor) are used for competition binding assays to determine Ki values for test compounds. Briefly, competition binding assays are run in a buffer containing 20 mM Hepes, pH 7.6, 0.2 mM EDTA, 75 mM NaCl, 1.5 mM MgCl2, 20% glycerol, 20 mM sodium molybdate, 0.2 mM DTT, 20 ug/ml aprotinin and 20 ug/ml leupeptin, using either 0.3 nM ^3H-dexamethasone for GR binding, 0.36 nM ^3H-methyltrienolone for AR binding, 0.25 nM ^3H-aldosterone for MR binding, or 0.29 nM ^3H-methyltrienolone for PR binding, and either 20 ug 293-GR lysate, 22 ug 293-AR lysate, 20 ug 293-MR lysate or 40 ug 293-PR lysate per well. Competing compounds are added at various concentraions in half-log increments. Non-specific binding is determined in the presence of 500 nM dexamethasone for GR binding, 500 nM aldosterone for MR binding, or 500 nM methyltrienolone for AR and PR binding,. The binding reaction (140 μl) is incubated for overnight at […], then 70 μl of cold charcoal-dextran buffer (containing per 50 ml of assay buffer, 0.75 g of charcoal and 0.25 g of dextran) is added to each reaction. Plates are mixed 8 minutes on an orbital shaker at 4° C. Plates are then centrifuged at 3,000 rpm at 4° C. for 10 minutes. An aliquot of 120 μl of the mix is transferred to another 96-well plate and 175 μl of Wallac Optiphase “Hisafe 3” scintillation fluid is added to each well. Plates are sealed and shaken vigorously on an orbital shaker. After an incubation of 2 hrs, plates are read in a Wallac Microbeta counter. The data is used to calculate an IC50 and % Inhibition at 10 μM. The Kd for ^3H-dexamethasone for GR binding, ^3H-methyltrienolone for AR binding, ^3H-aldosterone for MR binding, or ^3H-methyltrienolone for PR binding, is determined by saturation binding. The IC50 values for compounds are converted to Ki using Cheng-Prusoff equation and the Kd determined by saturation binding assay.

Turning to `CCC1(c2c[nH]c3c(NS(C)(=O)=O)cccc23)CCc2cc(F)ccc21` (racemic) [Example 1, N-[3-(1-ethyl-5-fluoro-indan-1-yl)-1H-indol-7-yl]-methanesulfonamide], the inhibitory constant (Ki) (as a rule, the equilibrium dissociation constant of an inhibitor or competing ligand from its target) in assay [1] is not above 500 nM.

For `CC1(c2c[nH]c3c(NS(C)(=O)=O)cccc23)CCc2cc(F)ccc21` (racemic) [Example 21, N-[3-(5-Fluoro-1-methyl-indan-1-yl)-1H-indol-7-yl]-methanesulfonamide], the inhibition constant Ki in assay [1] was not above 500 nM.

As for `CCC1(c2c[nH]c3c(NS(C)(=O)=O)cccc23)CCc2cc(F)cc(F)c21` (racemic) [Example 23, N-[3-(1-Ethyl-5,7-difluoro-indan-1-yl)-1H-indol-7-yl]-methanesulfonamide], in assay [1], the Ki was not above 500 nM.

For `CC1(c2c[nH]c3c(NS(C)(=O)=O)cccc23)CCCc2cc(F)ccc21` (racemic) [Example 28, N-[3-(6-Fluoro-1-methyl-1,2,3,4-tetrahydro-naphthalen-1-yl)-1H-indol-7-yl]-methanesulfonamide], the Ki in assay [1] is not above 500 nM.

Take `CCC1(c2c[nH]c3c(NS(C)(=O)=O)cccc23)CCCc2cc(F)ccc21` (racemic) [Example 29, N-[3-(1-Ethyl-6-fluoro-1,2,3,4-tetrahydro-naphthalen-1-yl)-1H-indol-7-yl]-methanesulfonamide]: the inhibitory constant (Ki) in assay [1] was not above 500 nM.

Regarding `CCC1(c2c[nH]c3c(NS(C)(=O)=O)cccc23)CCCc2cc(F)cc(F)c21` (racemic) [Example 31, N-[3-(1-Ethyl-6,8-difluoro-1,2,3,4-tetrahydro-naphthalen-1-yl)-1H-indol-7-yl]-methanesulfonamide], the inhibition constant Ki in assay [1] is not above 500 nM.

Turning to `CCC1(c2c[nH]c3c(NS(C)(=O)=O)cccc23)CCc2cc(F)ccc21` (single isomer, unassigned) [Example 1A, N-[3-(1-ethyl-5-fluoro-indan-1-yl)-1H-indol-7-yl]-methanesulfonamide], in assay [1], the Ki is not above 500 nM.

As for `CC1(c2c[nH]c3c(NS(C)(=O)=O)cccc23)CCc2cc(F)ccc21` (single isomer, unassigned) [Example 21A, N-[3-(5-Fluoro-1-methyl-indan-1-yl)-1H-indol-7-yl]-methanesulfonamide], the inhibitory constant (Ki) in assay [1] is not above 500 nM.

With `CC1(c2c[nH]c3c(NS(C)(=O)=O)cccc23)CCc2cc(F)ccc21` (single isomer, unassigned) [Example 21B, N-[3-(5-Fluoro-1-methyl-indan-1-yl)-1H-indol-7-yl]-methanesulfonamide], in assay [1], the Ki was not above 500 nM.

Take `CCC1(c2c[nH]c3c(NS(C)(=O)=O)cccc23)CCc2cc(F)cc(F)c21` (single isomer, unassigned) [Example 23A, N-[3-(1-Ethyl-5,7-difluoro-indan-1-yl)-1H-indol-7-yl]-methanesulfonamide]: the inhibitory constant (Ki) in assay [1] is not above 500 nM.

`CCC1(c2c[nH]c3c(NS(C)(=O)=O)cccc23)CCc2cc(F)cc(F)c21` (single isomer, unassigned) [Example 23B, N-[3-(1-Ethyl-5,7-difluoro-indan-1-yl)-1H-indol-7-yl]-methanesulfonamide]: the Ki in assay [1] is not above 10000 nM.

In the case of `CC1(c2c[nH]c3c(NS(C)(=O)=O)cccc23)CCCc2cc(F)ccc21` (single isomer, unassigned) [Example 28A, N-[3-(6-Fluoro-1-methyl-1,2,3,4-tetrahydro-naphthalen-1-yl)-1H-indol-7-yl]-methanesulfonamide], in assay [1], the Ki was not above 500 nM.

Regarding `CC1(c2c[nH]c3c(NS(C)(=O)=O)cccc23)CCCc2cc(F)ccc21` (single isomer, unassigned) [Example 28B, N-[3-(6-Fluoro-1-methyl-1,2,3,4-tetrahydro-naphthalen-1-yl)-1H-indol-7-yl]-methanesulfonamide], the Ki in assay [1] was not above 500 nM.

Turning to `CS(=O)(=O)Nc1cccc2c(C3(CCCN4CCOCC4)CCc4cc(F)ccc43)c[nH]c12` (centres unmarked) [Example 44, N-{3-[5-Fluoro-1-(3-morpholin-4-yl-propyl)-indan-1-yl]-1H-indol-7-yl}-methanesulfonamide], the Ki in assay [2] was not above 500 nM.
